The results in this text go back to PubChem BioAssay AID1259407 (Chemical Carcinogenesis Research Information System (CCRIS), 2018).

The subject of the data set is CCRIS mutagenicity, Ames/micronucleus/aberration tests. As to the kind of experiment: CCRIS mutagenicity studies.

Activity calls are given as the source filed them. How the calls were made is not given here.

In the case of `C=C(C)C`, the mutagenic call is, setting by setting: (Test System: AMES SALMONELLA TYPHIMURIUM, Strain/Indicator: TA97, Metabolic Activation: HAMSTER LIVER S-9, AROCLOR 1254 (10% OR 30%), Method: DESICCATOR) “inactive; negative”; (Test System: AMES SALMONELLA TYPHIMURIUM, Strain/Indicator: TA97, Metabolic Activation: NONE, Method: DESICCATOR) “inactive; negative”; (Test System: AMES SALMONELLA TYPHIMURIUM, Strain/Indicator: TA97, Metabolic Activation: RAT LIVER S-9, AROCLOR 1254 (10% OR 30%), Method: DESICCATOR) “inactive; negative”; (Test System: AMES SALMONELLA TYPHIMURIUM, Strain/Indicator: TA98, Metabolic Activation: HAMSTER LIVER S-9, AROCLOR 1254 (10% OR 30%), Method: DESICCATOR) “inactive; negative”; (Test System: AMES SALMONELLA TYPHIMURIUM, Strain/Indicator: TA98, Metabolic Activation: NONE) “inactive; negative”; (Test System: AMES SALMONELLA TYPHIMURIUM, Strain/Indicator: TA98, Metabolic Activation: NONE, Method: DESICCATOR) “inactive; negative”. Further, the mutagenic call was “inactive; negative” (Test System: AMES SALMONELLA TYPHIMURIUM, Strain/Indicator: TA98, Metabolic Activation: NONE, Method: GAS EXPOSURE); “inactive; negative” (Test System: AMES SALMONELLA TYPHIMURIUM, Strain/Indicator: TA98, Metabolic Activation: RAT LIVER S-9, AROCLOR 1254 (10% OR 30%), Method: DESICCATOR); “inactive; negative” (Test System: AMES SALMONELLA TYPHIMURIUM, Strain/Indicator: TA98, Metabolic Activation: RAT LIVER S-9, PHENOBARBITAL AND BETA-NAPHTHOFLAVONE (40%), Method: GAS EXPOSURE); “inactive; negative” (Test System: AMES SALMONELLA TYPHIMURIUM, Strain/Indicator: TA98, Metabolic Activation: RAT, LIVER, S-9, KC 500); “inactive; negative” (Test System: AMES SALMONELLA TYPHIMURIUM, Strain/Indicator: TA100, Metabolic Activation: HAMSTER LIVER S-9, AROCLOR 1254 (10% OR 30%), Method: DESICCATOR); “inactive; negative” (Test System: AMES SALMONELLA TYPHIMURIUM, Strain/Indicator: TA100, Metabolic Activation: NONE). The mutagenic call (Test System: AMES SALMONELLA TYPHIMURIUM, Strain/Indicator: TA100, Metabolic Activation: NONE, Method: DESICCATOR) is “inactive; negative”; the mutagenic call (Test System: AMES SALMONELLA TYPHIMURIUM, Strain/Indicator: TA100, Metabolic Activation: NONE, Method: FLASK ASSAY) was “inactive; negative”; the mutagenic call (Test System: AMES SALMONELLA TYPHIMURIUM, Strain/Indicator: TA100, Metabolic Activation: NONE, Method: GAS EXPOSURE) was “inactive; negative”; the mutagenic call (Test System: AMES SALMONELLA TYPHIMURIUM, Strain/Indicator: TA100, Metabolic Activation: RAT LIVER S-9, AROCLOR 1254 (10% OR 30%), Method: DESICCATOR) is “inactive; negative”; the mutagenic call (Test System: AMES SALMONELLA TYPHIMURIUM, Strain/Indicator: TA100, Metabolic Activation: RAT LIVER S-9, PHENOBARBITAL AND BETA-NAPHTHOFLAVONE (40%), Method: GAS EXPOSURE) is “inactive; negative”; the mutagenic call (Test System: AMES SALMONELLA TYPHIMURIUM, Strain/Indicator: TA100, Metabolic Activation: RAT, LIVER, S-9, KC 500) was “inactive; negative”. For the same compound, the mutagenic call reads like this: (Test System: AMES SALMONELLA TYPHIMURIUM, Strain/Indicator: TA102, Metabolic Activation: NONE, Method: FLASK ASSAY) “inactive; negative”; (Test System: AMES SALMONELLA TYPHIMURIUM, Strain/Indicator: TA1535, Metabolic Activation: HAMSTER LIVER S-9, AROCLOR 1254 (10% OR 30%), Method: DESICCATOR) “inactive; negative”; (Test System: AMES SALMONELLA TYPHIMURIUM, Strain/Indicator: TA1535, Metabolic Activation: NONE) “inactive; negative”; (Test System: AMES SALMONELLA TYPHIMURIUM, Strain/Indicator: TA1535, Metabolic Activation: NONE, Method: DESICCATOR) “inactive; negative”; (Test System: AMES SALMONELLA TYPHIMURIUM, Strain/Indicator: TA1535, Metabolic Activation: NONE, Method: FLASK ASSAY) “inactive; negative”; (Test System: AMES SALMONELLA TYPHIMURIUM, Strain/Indicator: TA1535, Metabolic Activation: NONE, Method: GAS EXPOSURE) “inactive; negative”. For the same compound, the mutagenic call by setting is: (Test System: AMES SALMONELLA TYPHIMURIUM, Strain/Indicator: TA1535, Metabolic Activation: RAT LIVER S-9, AROCLOR 1254 (10% OR 30%), Method: DESICCATOR) “inactive; negative”; (Test System: AMES SALMONELLA TYPHIMURIUM, Strain/Indicator: TA1535, Metabolic Activation: RAT LIVER S-9, PHENOBARBITAL AND BETA-NAPHTHOFLAVONE (40%), Method: GAS EXPOSURE) “inactive; negative”; (Test System: AMES SALMONELLA TYPHIMURIUM, Strain/Indicator: TA1535, Metabolic Activation: RAT, LIVER, S-9, KC 500) “inactive; negative”; (Test System: AMES SALMONELLA TYPHIMURIUM, Strain/Indicator: TA1537, Metabolic Activation: NONE) “inactive; negative”; (Test System: AMES SALMONELLA TYPHIMURIUM, Strain/Indicator: TA1537, Metabolic Activation: NONE, Method: GAS EXPOSURE) “inactive; negative”; (Test System: AMES SALMONELLA TYPHIMURIUM, Strain/Indicator: TA1537, Metabolic Activation: RAT LIVER S-9, PHENOBARBITAL AND BETA-NAPHTHOFLAVONE (40%), Method: GAS EXPOSURE) “inactive; negative”. Moreover, the mutagenic call by setting is: (Test System: AMES SALMONELLA TYPHIMURIUM, Strain/Indicator: TA1537, Metabolic Activation: RAT, LIVER, S-9, KC 500) “inactive; negative”; (Test System: AMES SALMONELLA TYPHIMURIUM, Strain/Indicator: TA1538, Metabolic Activation: NONE) “inactive; negative”; (Test System: AMES SALMONELLA TYPHIMURIUM, Strain/Indicator: TA1538, Metabolic Activation: RAT, LIVER, S-9, KC 500) “inactive; negative”; (Test System: E. COLI, Strain/Indicator: WP2 UVRA, Metabolic Activation: NONE) “inactive; negative”; (Test System: E. COLI, Strain/Indicator: WP2 UVRA, Metabolic Activation: RAT, LIVER, S-9, KC 500) “inactive; negative”; (Test System: E.COLI, Strain/Indicator: WP2UVRA, Metabolic Activation: NONE, Method: GAS EXPOSURE) “inactive; negative”. Moreover, where the note is “Test System: E.COLI, Strain/Indicator: WP2UVRA, Metabolic Activation: RAT LIVER S-9, PHENOBARBITAL AND BETA-NAPHTHOFLAVONE (40%), Method: GAS EXPOSURE”, the mutagenic call was “inactive; negative”.
As to `O=c1cccc2c1ccc1[nH]c3ccc4ccccc4c3cc12`, the mutagenic call by setting is: (Test System: AMES SALMONELLA TYPHIMURIUM, Strain/Indicator: TA100, Metabolic Activation: GUINEA PIG, LIVER, S-9, 3-METHYLCHOLANTHRENE, Method: STANDARD PLATE) “inactive; negative”; (Test System: CHINESE HAMSTER V-79, Strain/Indicator: V-79/6-THIOGUANINE, Metabolic Activation: GUINEA PIG, LIVER, S-9, 3-METHYLCHOLANTHRENE) “inactive; negative”.
With `[N-]=[N+]=NCC[C@H](N)C(=O)O`, the mutagenic call (Test System: AMES SALMONELLA TYPHIMURIUM, Strain/Indicator: TA1530, Metabolic Activation: NONE, Method: STANDARD PLATE) is “active; positive”.
